* marks the point of attachment. Biotin = O=C1N[C@H]2[C@H](CS[C@H]2CCCCC(=O)*)N1
Experiments:
[1] = tested on: antibodies in sera from HCV-seropositive donors; experiment: ELISA with HCV antibody-positive sera (biotinylated peptides on streptavidin- or avidin-coated plates, unbiotinylated peptides coated directly); type: binding, human; conditions: for PEPTIDE ELISA (O.D.): Table 12, biotinylated 20-mers; for optical density (450 nm): Table 7
Description: (§1) Where peptides were to be coated directly, stock solutions of the peptides were diluted in sodium carbonate buffer, pH 9.6 and used to coat polystyrene microtiter plates at a peptide concentration of 2 to 5 micrograms per milliliter for 1 hour at 37° C.
(§2) In cases where biotinylated peptides were to be evaluated, plates were first coated with streptavidin in sodium carbonate buffer, pH 9.6 at a concentration of 3 micrograms per milliliter for 1 hour at 37° C. The plates were then washed to remove excess, unbound protein. A working solution of the biotinylated peptide at 1 microgram per milliliter in sodium carbonate buffer was then added to the wells of the microtiter plate and incubated for 1 hours at 37° C.
(§3) Once the plates had been coated with antigen, any remaining free binding sites on the plastic were blocked with casein. After washing, a dilution of the appropriate antisera, usually 1:100, was added to the wells of the plates and incubated for 1 hour at 37° C.
(§4) After washing to remove unbound material, specific antibody binding was detected by incubating the plates with goat anti-human immunoglobulin antibodies conjugated to the enzyme horseradish peroxidase. Following removal of unbound conjugate by washing, a solution containing H2O2 and 3,3′,5,5′-tetramethylbenzidine was added.
(§5) Reactions were stopped after a suitable interval by addition of sulfuric acid. […] Absorbance measurements were made at a wavelength of 450 nanometers and all data are expressed as an optical density value at this wavelength.
The unbiotinylated peptides were adsorbed onto the wells of polystyrene microtiter plates at a concentration of 3 micrograms per milliliter.
The biotinylated peptides were bound at a concentration of 1 microgram per milliliter to streptavidin-coated microtiter plates. Sera known to contain antibodies to these peptides were used for the evaluation and were tested at a 20-fold dilution.
To investigate further the enhanced antibody recognition of biotinylated HCV peptides bound to streptavidin or avidin as compared to direct adsorption on plastic, the influence of peptide coating concentration was investigated. Three peptides (HCV peptides II, XI, and XVI) were coated in concentrations ranging from 10 nanograms per milliliter to 3 micrograms per milliliter in a volume of 200 microliters per microtiter plate well. For direct coating, the unbiotinylated versions of these peptides were used. The biotinylated versions of these peptides were used to coat wells to which streptavidin had previously been adsorbed. Sera known to contain antibodies to these peptides were used at a dilution of 1 to 100 to evaluate the magnitude of antibody binding.
(§6) Unbiotinylated HCV peptide I was coated directly onto the wells of a polystyrene ELISA plate at a concentration of 3 micrograms per milliliter in sodium carbonate buffer, pH 9.6. Biotinylated HCV peptide I was bound to streptavidin-coated wells using a stock solution containing the peptide at a concentration of 1 microgram per milliliter. The resulting plates were then incubated in parallel with a panel of sera from HCV-seropositive donors. […] Two of the sera (8326 and 8244) recognize the biotinylated version of this peptide far better than the unbiotinylated version. The specificity of the antibody reaction is also reflected by the low optical density values obtained for 5 serum samples from uninfected donors (F88, F89, F76, F136, and F6).
To determine how well biotinylated peptides would function in a mixture when bound to streptavidin- or avidin-coated plates, two mixtures were made of the N-terminally biotinylated versions of the HIV-1 peptides TM-HIV-1 (hereabove referred to as 1a.1) and V3-nm (hereabove referred to as 1b.4), the HIV-2 peptide TM-HIV-2 (hereabove referred to as 2a), and the hepatitis C virus peptides II, IX, and XVIII. […]

[2] = ELISA with seronegative / negative control sera (specificity); type: binding, human; conditions: Table 7
Description: as §1, §2, §3, §4, §5, §6
To determine how well biotinylated peptides would function in a mixture when bound to streptavidin- or avidin-coated plates, two mixtures were made of the N-terminally biotinylated versions of the HIV-1 peptides TM-HIV-1 (hereabove referred to as 1a.1) and V3-nm (hereabove referred to as 1b.4), the HIV-2 peptide TM-HIV-2 (hereabove referred to as 2a), and the hepatitis C virus peptides II, IX, and XVIII. Mixture A contained each of the six biotinylated peptides at a concentration of 1 microgram per milliliter (6 micrograms per milliliter peptide, total) while in mixture B, each peptide was present at a concentration of 0.1 microgram per milliliter (0.6 microgram per milliliter peptide, total). The individual peptides were coated at a concentration of 1 microgram per milliliter. For purposes of comparison, mixtures A and B were also coated directly onto the wells of a microtiter plate. Samples from HIV-1, HIV-2, and HCV-seropositive donors were tested and compared to sera from seronegative blood donors. A cut-off absorbance value of 0.250 was used to determine whether a reaction was positive or negative. Absorbance values equal or greater than 0.250 were considered positive while absorbance values below this value were considered negative.

[3] = serum F8, HCV antibody-negative
[4] = serum F76, HCV antibody-negative
[5] = serum F88, HCV antibody-negative
[6] = serum F89, HCV antibody-negative
[7] = serum F136, HCV antibody-negative
[8] = serum 6378, HCV antibody-positive
[9] = serum 8242, HCV antibody-positive
[10] = serum 8243, HCV antibody-positive
[11] = serum 8244, HCV antibody-positive
[12] = serum 8248, HCV antibody-positive
[13] = serum 8316, HCV antibody-positive
[14] = serum 8318, HCV antibody-positive
[15] = serum 8320, HCV antibody-positive
[16] = serum 8326, HCV antibody-positive
[17] = serum 8329, HCV antibody-positive
[18] = serum 8330, HCV antibody-positive
[19] = serum 8333, HCV antibody-positive
[20] = serum 8334, HCV antibody-positive
[21] = serum 8336, HCV antibody-positive
[22] = serum 8344, HCV antibody-positive
[23] = serum 8364, HCV antibody-positive
[24] = serum 8374, HCV antibody-positive
[25] = serum 8387, HCV antibody-positive

With “Core-7: biotinylated 20-mer, HCV core aa 37-56, SEQ ID NO:41” the “PEPTIDE ELISA (O.D.)” value ([1]; serum 0843) was 1.251, the “PEPTIDE ELISA (O.D.)” value ([1]; serum 8240) was 1.529 and the “PEPTIDE ELISA (O.D.)” value ([1]; serum 8241) was 0.448. The “PEPTIDE ELISA (O.D.)” value ([1]; serum 8242) was 0.632, the “PEPTIDE ELISA (O.D.)” value ([1]; serum 8332) was 1.387 and the “PEPTIDE ELISA (O.D.)” value ([1]; serum 8339) was 0.166. The “PEPTIDE ELISA (O.D.)” value ([1]; serum 8350) was 0.357, the “PEPTIDE ELISA (O.D.)” value ([1]; serum 8377) was 0.221 and the “PEPTIDE ELISA (O.D.)” value ([1]; serum 8378) was 1.089. The “PEPTIDE ELISA (O.D.)” value ([1]; serum 8388) was 0.970.
In the case of “H2N-Met-Ser-Thr-Ile-Pro-Lys-Pro-Gln-Arg-Lys-Thr-Lys-Arg-Asn-Thr-Asn-Arg-Arg-Pro-Gln-CONH2 (H-MSTIPKPQRKTKRNTNRRPQ-NH2) [HCV peptide I]”, the “optical density (450 nm)” value [2, 3] was 0.000, the “optical density (450 nm)” value [2, 4] was 0.000 and the “optical density (450 nm)” value [2, 5] was 0.000. The “optical density (450 nm)” value [2, 6] was 0.017, the “optical density (450 nm)” value [2, 7] was 0.006 and the “optical density (450 nm)” value [1, 8] was 2.161. The “optical density (450 nm)” value [1, 9] was 1.367, the “optical density (450 nm)” value [1, 10] was 2.211 and the “optical density (450 nm)” value [1, 11] was 0.077. For the same substance, the “optical density (450 nm)” value [1, 12] was 2.042, the “optical density (450 nm)” value [1, 13] was 2.394 and the “optical density (450 nm)” value [1, 14] was 2.385. For the same substance, the “optical density (450 nm)” value [1, 15] was 2.760, the “optical density (450 nm)” value [1, 16] was 0.525 and the “optical density (450 nm)” value [1, 17] was 2.633. For the same substance, the “optical density (450 nm)” value [1, 18] was 1.985, the “optical density (450 nm)” value [1, 19] was 2.143 and the “optical density (450 nm)” value [1, 20] was 2.271. The “optical density (450 nm)” value [1, 21] was 1.558, the “optical density (450 nm)” value [1, 22] was 1.878 and the “optical density (450 nm)” value [1, 23] was 2.705. For the same substance, the “optical density (450 nm)” value [1, 24] was 1.070 and the “optical density (450 nm)” value [1, 25] was 1.427.
In the case of “H2N-Met-Ser-Thr-Ile-Pro-Lys-Pro-Gln-Arg-Lys-Thr-Lys-Arg-Asn-Thr-Asn-Arg-Arg-Pro-Gln-Gly-Gly-Lys (Bio)-CONH2 (H-MSTIPKPQRKTKRNTNRRPQGGK(Biotin)-NH2; SMILES CC[C@H](C)[C@H](NC(=O)[C@@H](NC(=O)[C@H](CO)NC(=O)[C@@H](N)CCSC)[C@@H](C)O)C(=O)N1CCC[C@H]1C(=O)N[C@@H](CCCCN)C(=O)N1CCC[C@H]1C(=O)N[C@@H](CCC(N)=O)C(=O)N[C@@H](CCCNC(=N)N)C(=O)N[C@@H](CCCCN)C(=O)N[C@H](C(=O)N[C@@H](CCCCN)C(=O)N[C@@H](CCCNC(=N)N)C(=O)N[C@@H](CC(N)=O)C(=O)N[C@H](C(=O)N[C@@H](CC(N)=O)C(=O)N[C@@H](CCCNC(=N)N)C(=O)N[C@@H](CCCNC(=N)N)C(=O)N1CCC[C@H]1C(=O)N[C@@H](CCC(N)=O)C(=O)NCC(=O)NCC(=O)N[C@@H](CCCCNC(=O)CCCC[C@@H]1SC[C@@H]2NC(=O)N[C@@H]21)C(N)=O)[C@@H](C)O)[C@@H](C)O) [HCV peptide I carboxy-biotinylated]”, the “optical density (450 nm)” value [2, 3] was 0.000, the “optical density (450 nm)” value [2, 4] was 0.022 and the “optical density (450 nm)” value [2, 5] was 0.026. For the same substance, the “optical density (450 nm)” value [2, 6] was 0.001, the “optical density (450 nm)” value [2, 7] was 0.002 and the “optical density (450 nm)” value [1, 8] was 2.531. For the same substance, the “optical density (450 nm)” value [1, 9] was 2.389, the “optical density (450 nm)” value [1, 10] was 2.541 and the “optical density (450 nm)” value [1, 11] was 1.399. For the same substance, the “optical density (450 nm)” value [1, 12] was 2.493, the “optical density (450 nm)” value [1, 13] was 2.541 and the “optical density (450 nm)” value [1, 14] was 2.404. The “optical density (450 nm)” value [1, 15] was 2.762, the “optical density (450 nm)” value [1, 16] was 1.775 and the “optical density (450 nm)” value [1, 17] was 2.672. For the same substance, the “optical density (450 nm)” value [1, 18] was 2.651, the “optical density (450 nm)” value [1, 19] was 2.545 and the “optical density (450 nm)” value [1, 20] was 2.549. For the same substance, the “optical density (450 nm)” value [1, 21] was 2.016, the “optical density (450 nm)” value [1, 22] was 2.010 and the “optical density (450 nm)” value [1, 23] was 2.705. For the same substance, the “optical density (450 nm)” value [1, 24] was 2.151 and the “optical density (450 nm)” value [1, 25] was 2.628.
In the case of “HCV-7: biotinylated 20-mer, HCV NS4 aa 1724-1743, SEQ ID NO:55”, the “PEPTIDE ELISA (O.D.)” value ([1]; serum 0843) was 2.251, the “PEPTIDE ELISA (O.D.)” value ([1]; serum 8240) was 1.963 and the “PEPTIDE ELISA (O.D.)” value ([1]; serum 8241) was 0.968. The “PEPTIDE ELISA (O.D.)” value ([1]; serum 8242) was 1.252, the “PEPTIDE ELISA (O.D.)” value ([1]; serum 8332) was 0.945 and the “PEPTIDE ELISA (O.D.)” value ([1]; serum 8339) was 0.041. The “PEPTIDE ELISA (O.D.)” value ([1]; serum 8350) was 0.598, the “PEPTIDE ELISA (O.D.)” value ([1]; serum 8377) was 1.829 and the “PEPTIDE ELISA (O.D.)” value ([1]; serum 8378) was 2.006. The “PEPTIDE ELISA (O.D.)” value ([1]; serum 8388) was 2.504 and the “antibody binding to the 20-mers” value ([1]; serum 8241) was “Moderate binding”.
With “NS5-25: biotinylated 20-mer, HCV NS5 aa 2263-2282, SEQ ID NO:59” the “PEPTIDE ELISA (O.D.)” value ([1]; serum 0843) was 0.062, the “PEPTIDE ELISA (O.D.)” value ([1]; serum 8240) was 0.054 and the “PEPTIDE ELISA (O.D.)” value ([1]; serum 8241) was 0.050. For the same substance, the “PEPTIDE ELISA (O.D.)” value ([1]; serum 8242) was 0.260, the “PEPTIDE ELISA (O.D.)” value ([1]; serum 8332) was 0.047 and the “PEPTIDE ELISA (O.D.)” value ([1]; serum 8339) was 1.495. For the same substance, the “PEPTIDE ELISA (O.D.)” value ([1]; serum 8350) was 0.069, the “PEPTIDE ELISA (O.D.)” value ([1]; serum 8377) was 1.092 and the “PEPTIDE ELISA (O.D.)” value ([1]; serum 8378) was 0.279. The “PEPTIDE ELISA (O.D.)” value ([1]; serum 8388) was 0.055.

Source: patent US6667387B1, “HCV core peptides” (priority 1992, dated 2003)
